Measured values taken from patent US10927123B2, “Modulators of the beta-3 adrenergic receptor useful for the treatment or prevention of disorders related thereto” (Arena Pharmaceuticals, Inc., priority 2016, dated 2021).

Target: Beta-3 Adrenergic Receptor (Homo sapiens (Human), UniProt P13945)
Test: HTRF cAMP antagonist assay (IC50 determination)
Format: cell-based
Settings: CHO-K1 cells stably expressing recombinant receptor; antagonism of isoproterenol at EC90; cAMP readout
Description: HTRF cAMP assays were performed according to manufacturer's instructions (Cisbio, cAMP Dynamic 2 Assay Kit; #62AM4PEJ). CHO-K1 cells stably expressing recombinant receptor were harvested and suspended in warm PBS to make a 300,000 cells/mL stock. This cell suspension was dispensed into 384 well assay plates (PerkinElmer ProxiPlate #6008280) at 5 μL per well (1500 cells/well) along with a cAMP standard curve.
Compounds were dissolved and serially diluted (5-fold) in DMSO to generate a 10-point dose response stock. The stock was then diluted 100-fold in assay buffer (PBS containing 1 mM IBMX) before a volume of 2.5 μL was added to the cells (the final, top concentration of compound in the dose-response is typically 10 or 100 μM). After a brief incubation, 2.5 μL of isoproterenol stock, prepared at a concentration 4 times its EC90 at the receptor of interest, was added to the wells. The EC90 for isoproterenol, a beta-adrenergic agonist, was determined in separate experiments using standard methods to measure agonist potencies.
Following a 1-hour incubation at room temperature, 5 μL of cAMP-D2 Reagent diluted in Lysis Buffer was added to each well followed by 5 μL of Cryptate Reagent. Plates were further incubated at room temperature for 1 hour prior to reading. Time resolved fluorescence measurements were collected on a suitable, HTRF-capable plate reader.
Counts from the plate reader were fit to the cAMP standard curve on the assay plate in order to determine cAMP concentrations in each well, and these values were used to construct dose-response curves to obtain IC50 values.

Chain of Beta-3 Adrenergic Receptor (P13945 whole entry, species assumed): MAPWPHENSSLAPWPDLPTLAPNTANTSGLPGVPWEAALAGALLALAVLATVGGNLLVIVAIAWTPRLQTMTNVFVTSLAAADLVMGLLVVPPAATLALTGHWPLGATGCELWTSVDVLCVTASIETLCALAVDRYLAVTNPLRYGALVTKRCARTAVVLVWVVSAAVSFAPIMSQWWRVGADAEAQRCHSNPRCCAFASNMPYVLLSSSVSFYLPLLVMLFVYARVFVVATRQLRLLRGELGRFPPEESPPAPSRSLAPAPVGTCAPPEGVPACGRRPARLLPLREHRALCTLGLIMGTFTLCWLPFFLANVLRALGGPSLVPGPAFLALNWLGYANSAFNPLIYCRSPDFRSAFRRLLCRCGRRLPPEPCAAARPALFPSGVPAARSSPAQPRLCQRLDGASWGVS

In order of rising IC50:
1. CCCn1cc(-c2cccc(S(=O)(=O)N3CCC4(CC3)CC(NC[C@H](O)COc3cccc(S(C)(=O)=O)c3)CO4)c2)cn1 (stereo partly drawn) [Compound 38, (2S)-1-(3-(methylsulfonyl)phenoxy)-3-(8-(3-(1-propyl-1H-pyrazol-4-yl)phenylsulfonyl)-1-oxa-8-azaspiro[4.5]decan-3-ylamino)propan-2-ol]  3.99 nM
2. CS(=O)(=O)c1cccc(OC[C@@H](O)CNC2COC3(CCN(S(=O)(=O)c4cccc(-c5cn[nH]c5)c4)CC3)C2)c1 (stereo partly drawn) [Compound 37, (2S)-1-(8-(3-(1H-pyrazol-4-yl)phenylsulfonyl)-1-oxa-8-azaspiro[4.5]decan-3-ylamino)-3-(3-(methylsulfonyl)phenoxy)propan-2-ol]  9.37 nM
3. CS(=O)(=O)c1cccc(OC[C@@H](O)CNC2COC3(CCN(S(=O)(=O)c4cccc(-c5ccc(CN)cc5)c4)CC3)C2)c1 (stereo partly drawn) [Compound 41, (2S)-1-(8-(4′-(aminomethyl)biphenyl-3-ylsulfonyl)-1-oxa-8-azaspiro[4.5]decan-3-ylamino)-3-(3-(methylsulfonyl)phenoxy)propan-2-ol]  13.7 nM
4. CS(=O)(=O)c1cccc(OC[C@@H](O)CNC2COC3(CCN(S(=O)(=O)c4ccc5c(c4)CCCC5)CC3)C2)c1 (stereo partly drawn) [Compound 29, (2S)-1-(3-(methylsulfonyl)phenoxy)-3-(8-(5,6,7,8-tetrahydronaphthalen-2-ylsulfonyl)-1-oxa-8-azaspiro[4.5]decan-3-ylamino)propan-2-ol]  16.1 nM
5. CS(=O)(=O)c1cccc(OC[C@@H](O)CNC2COC3(CCN(S(=O)(=O)c4ccc(-c5ccccc5)s4)CC3)C2)c1 (stereo partly drawn) [Compound 51, (2S)-1-(3-(methylsulfonyl)phenoxy)-3-(8-(5-phenylthiophen-2-ylsulfonyl)-1-oxa-8-azaspiro[4.5]decan-3-ylamino)propan-2-ol]  17.4 nM
6. CS(=O)(=O)c1cccc(OC[C@@H](O)CNC2COC3(CCN(S(=O)(=O)c4ccc5c(c4)CCCO5)CC3)C2)c1 (stereo partly drawn) [Compound 28, (2S)-1-(8-(chroman-6-ylsulfonyl)-1-oxa-8-azaspiro[4.5]decan-3-ylamino)-3-(3-(methylsulfonyl)phenoxy)propan-2-ol]  18.5 nM
7. CS(=O)(=O)c1cccc(OC[C@@H](O)CNC2COC3(CCN(S(=O)(=O)c4cccc(-c5ccc(S(N)(=O)=O)cc5)c4)CC3)C2)c1 (stereo partly drawn) [Compound 42, 3′-(3-((S)-2-hydroxy-3-(3-(methylsulfonyl)phenoxy)propylamino)-1-oxa-8-azaspiro[4.5]decan-8-ylsulfonyl)biphenyl-4-sulfonamide]  18.7 nM
8. CCS(=O)(=O)c1cccc(OC[C@@H](O)CN[C@@H]2COC3(CCN(S(=O)(=O)c4ccc5ccccc5c4)CC3)C2)c1 [Compound 27, (S)-1-(3-(ethylsulfonyl)phenoxy)-3-((S)-8-(naphthalen-2-ylsulfonyl)-1-oxa-8-azaspiro[4.5]decan-3-ylamino)propan-2-ol]  19.3 nM
9. O=S(=O)(CCO)c1cccc(OC[C@@H](O)CN[C@H]2COC3(CCN(S(=O)(=O)c4ccc5ccccc5c4)CC3)C2)c1 [Compound 35, (S)-1-(3-(2-hydroxyethylsulfonyl)phenoxy)-3-((R)-8-(naphthalen-2-ylsulfonyl)-1-oxa-8-azaspiro[4.5]decan-3-ylamino)propan-2-ol]  20.3 nM
10. Cn1cc(-c2cccc(S(=O)(=O)N3CCC4(CC3)CC(NC[C@H](O)COc3cccc(S(C)(=O)=O)c3)CO4)c2)cn1 (stereo partly drawn) [Compound 40, (2S)-1-(8-(3-(1-methyl-1H-pyrazol-4-yl)phenylsulfonyl)-1-oxa-8-azaspiro[4.5]decan-3-ylamino)-3-(3-(methylsulfonyl)phenoxy)propan-2-ol]  20.3 nM
11. CN1CCOc2ccc(S(=O)(=O)N3CCC4(CC3)CC(NC[C@H](O)COc3cccc(S(C)(=O)=O)c3)CO4)cc21 (stereo partly drawn) [Compound 32, (2S)-1-(8-(4-methyl-3,4-dihydro-2H-benzo[b][1,4]oxazin-6-ylsulfonyl)-1-oxa-8-azaspiro[4.5]decan-3-ylamino)-3-(3-(methylsulfonyl)phenoxy)propan-2-ol]  21.1 nM
12. CCn1cc(-c2cccc(S(=O)(=O)N3CCC4(CC3)CC(NC[C@H](O)COc3cccc(S(C)(=O)=O)c3)CO4)c2)cn1 (stereo partly drawn) [Compound 36, (2S)-1-(8-(3-(1-ethyl-1H-pyrazol-4-yl)phenylsulfonyl)-1-oxa-8-azaspiro[4.5]decan-3-ylamino)-3-(3-(methylsulfonyl)phenoxy)propan-2-ol]  21.5 nM
13. Cc1cc(-c2cccc(S(=O)(=O)N3CCC4(CC3)CC(NC[C@H](O)COc3cccc(S(C)(=O)=O)c3)CO4)c2)ccn1 (stereo partly drawn) [Compound 44, (2S)-1-(8-(3-(2-methylpyridin-4-yl)phenylsulfonyl)-1-oxa-8-azaspiro[4.5]decan-3-ylamino)-3-(3-(methylsulfonyl)phenoxy)propan-2-ol]  21.5 nM
14. CS(=O)(=O)c1cccc(OC[C@@H](O)CNC2COC3(CCN(S(=O)(=O)c4cccc(-c5ccccn5)c4)CC3)C2)c1 (stereo partly drawn) [Compound 45, (2S)-1-(3-(methylsulfonyl)phenoxy)-3-(8-(3-(pyridin-2-yl)phenylsulfonyl)-1-oxa-8-azaspiro[4.5]decan-3-ylamino)propan-2-ol]  23.6 nM
15. O=S(=O)(CCO)c1cccc(OC[C@@H](O)CN[C@@H]2COC3(CCN(S(=O)(=O)c4ccc5ccccc5c4)CC3)C2)c1 [Compound 34, (S)-1-(3-(2-hydroxyethylsulfonyl)phenoxy)-3-((S)-8-(naphthalen-2-ylsulfonyl)-1-oxa-8-azaspiro[4.5]decan-3-ylamino)propan-2-ol]  31.2 nM
16. CS(=O)(=O)c1cccc(OC[C@@H](O)CNC2COC3(CCN(S(=O)(=O)c4cccc(-c5ccncc5)c4)CC3)C2)c1 (stereo partly drawn) [Compound 43, (2S)-1-(3-(methylsulfonyl)phenoxy)-3-(8-(3-(pyridin-4-yl)phenylsulfonyl)-1-oxa-8-azaspiro[4.5]decan-3-ylamino)propan-2-ol]  32.4 nM
17. COc1cccc(S(=O)(=O)N2CCC3(CC2)CC(NC[C@H](O)COc2cccc(S(C)(=O)=O)c2)CO3)c1 (stereo partly drawn) [Compound 49, (2S)-1-(8-(3-methoxyphenylsulfonyl)-1-oxa-8-azaspiro[4.5]decan-3-ylamino)-3-(3-(methylsulfonyl)phenoxy)propan-2-ol]  33.1 nM
18. CS(=O)(=O)c1cccc(OC[C@@H](O)CNC2COC3(CCN(S(=O)(=O)c4ccc(Cl)c5nonc45)CC3)C2)c1 (stereo partly drawn) [Compound 30, (2S)-1-(8-(7-chlorobenzo[c][1,2,5]oxadiazol-4-ylsulfonyl)-1-oxa-8-azaspiro[4.5]decan-3-ylamino)-3-(3-(methylsulfonyl)phenoxy)propan-2-ol]  34.3 nM
19. CS(=O)(=O)c1cccc(OC[C@@H](O)CNC2COC3(CCN(S(=O)(=O)c4cccc(C(F)(F)F)c4)CC3)C2)c1 (stereo partly drawn) [Compound 50, (2S)-1-(3-(methylsulfonyl)phenoxy)-3-(8-(3-(trifluoromethyl)phenylsulfonyl)-1-oxa-8-azaspiro[4.5]decan-3-ylamino)propan-2-ol]  42.2 nM
20. Cc1cccc(S(=O)(=O)N2CCC3(CC2)CC(NC[C@H](O)COc2cccc(S(C)(=O)=O)c2)CO3)c1 (stereo partly drawn) [Compound 48, (2S)-1-(3-(methylsulfonyl)phenoxy)-3-(8-(m-tolylsulfonyl)-1-oxa-8-azaspiro[4.5]decan-3-ylamino)propan-2-ol]  46.1 nM
21. CS(=O)(=O)c1cccc(OC[C@@H](O)CNC2COC3(CCN(S(=O)(=O)c4cccc(Cl)c4)CC3)C2)c1 (stereo partly drawn) [Compound 31, (2S)-1-(8-(3-chlorophenylsulfonyl)-1-oxa-8-azaspiro[4.5]decan-3-ylamino)-3-(3-(methylsulfonyl)phenoxy)propan-2-ol]  49.3 nM
22. Cc1noc(C)c1S(=O)(=O)N1CCC2(CC1)CC(NC[C@H](O)COc1cccc(S(C)(=O)=O)c1)CO2 (stereo partly drawn) [Compound 52, (2S)-1-(8-(3,5-dimethylisoxazol-4-ylsulfonyl)-1-oxa-8-azaspiro[4.5]decan-3-ylamino)-3-(3-(methylsulfonyl)phenoxy)propan-2-ol]  61.2 nM
23. CS(=O)(=O)c1cccc(OC[C@@H](O)CNC2COC3(CCN(S(=O)(=O)c4cccc(-c5cnn(C6CC6)c5)c4)CC3)C2)c1 (stereo partly drawn) [Compound 39, (2S)-1-(8-(3-(1-cyclopropyl-1H-pyrazol-4-yl)phenylsulfonyl)-1-oxa-8-azaspiro[4.5]decan-3-ylamino)-3-(3-(methylsulfonyl)phenoxy)propan-2-ol]  70.8 nM
24. CS(=O)(=O)c1cccc(OC[C@@H](O)CNC2COC3(CCN(S(=O)(=O)c4ccccc4)CC3)C2)c1 (stereo partly drawn) [Compound 47, (2S)-1-(3-(methylsulfonyl)phenoxy)-3-(8-(phenylsulfonyl)-1-oxa-8-azaspiro[4.5]decan-3-ylamino)propan-2-ol]  82.1 nM
25. CS(=O)(=O)c1cccc(OC[C@@H](O)CNC2COC3(CCN(S(=O)(=O)c4cccnc4)CC3)C2)c1 (stereo partly drawn) [Compound 46, (2S)-1-(3-(methylsulfonyl)phenoxy)-3-(8-(pyridin-3-ylsulfonyl)-1-oxa-8-azaspiro[4.5]decan-3-ylamino)propan-2-ol]  87 nM
26. CS(=O)(=O)c1cccc(OC[C@H](O)CN[C@@H]2COC3(CCN(S(=O)(=O)c4ccc5ccccc5c4)CC3)C2)c1 [Compound 33, (R)-1-(3-(methylsulfonyl)phenoxy)-3-((S)-8-(naphthalen-2-ylsulfonyl)-1-oxa-8-azaspiro[4.5]decan-3-ylamino)propan-2-ol]  189 nM
